Experiment [1] concerns the target T1, 5‐HT2C receptor (Rattus norvegicus, UniProt P08909).
T1 construct: 5‐HT2C receptor membrane protein was extracted from rat hippocampus and a stably transfected HEK293 cell line; from tissue; host or cells: rat hippocampus
T1 sequence (P08909 33-460): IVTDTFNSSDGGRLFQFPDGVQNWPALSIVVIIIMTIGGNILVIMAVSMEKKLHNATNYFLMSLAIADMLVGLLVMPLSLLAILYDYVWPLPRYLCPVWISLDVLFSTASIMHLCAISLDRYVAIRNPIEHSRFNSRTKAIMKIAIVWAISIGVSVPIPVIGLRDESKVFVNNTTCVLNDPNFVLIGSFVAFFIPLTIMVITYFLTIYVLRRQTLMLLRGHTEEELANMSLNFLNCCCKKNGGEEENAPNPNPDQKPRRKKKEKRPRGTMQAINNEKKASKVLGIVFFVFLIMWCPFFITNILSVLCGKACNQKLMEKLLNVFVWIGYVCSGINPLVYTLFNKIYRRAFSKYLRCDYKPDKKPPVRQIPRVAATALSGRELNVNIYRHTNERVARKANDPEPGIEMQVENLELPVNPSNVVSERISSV
As to the kind of experiment: 5‐HT2C receptor binding assay ([3H]‐LSD competition). The settings on record: mean ± SEM, three independent experiments. How it is done: Hippocampal membrane preparations were obtained using previously described methods. ^24 , ^25 , ^26 Briefly, rats were decapitated and their brains were rapidly removed. Next, the hippocampus was dissected and subsequently homogenized in 40 volumes of ice‐cold buffer (50 mM Tris‐HCl Buffer, pH 7.4) and then centrifuged at 40,000 × g at 4°C for 10 min. The particles were re‐suspended and centrifuged again. In order to remove endogenous monoamines, the final suspension was incubated at 37°C for 20 min and then centrifuged as usual. The final pellets were frozen at −80°C at once for up to 1 week.
Human MT1/MT2 receptor membrane proteins were obtained from Perkin‐Elmer (ES‐620 [MT1] and ES‐621 [MT2]). The stably transfected 5‐HT2C receptor HEK293 cell line was prepared using a nucleus‐cytoplasm‐membrane preparation kit (Applagin Technologies Inc.). Briefly, cells were harvested at 4°C, 110 00 × g and centrifugation for 5 min. Homogenize pellets in the assay buffer (50 mM Tris‐HCl buffer containing 120 mM NaCl and 5 mM KCl, pH 7.4) and then centrifuged twice at 4°C, 36,000 × g for 15 min. […]
Receptor membrane protein, 5‐HT2C (50 μl), was added to all the tubes. Non‐specific binding was determined by the presence of unlabeled 10 μM 5‐HT and pre‐reacted for 30 min. […] Finally, 1 ml of scintillation fluid was added and the radioactive intensity measured by liquid scintillation counting.

In experiment [2] the test system is CUS rats. The experiment can be described thus: Novelty‐suppressed feeding test in the CUS model. It counts as in vivo. Conditions: chronic, 5, 10, 20 and 40 mg/kg, vs. vehicle‐stressed rats. How it is done:
In order to further examine the antidepressant effects of GW117, chronic unpredictable stress (CUS) model was utilized; the methods were as described before. ^29 , ^31 After 1 week of training, rats underwent sucrose training of 48 h. After training, a sucrose baseline test was performed. […] Gastric gavage was given 1 h before the stress (08:00–09:00). Except for the non‐stressed group, all rats were stimulated by a series of stressors. stress methods included the following: fast on food and water (24 h), moisture cage (150 g sawdust bedding in 200 ml water), overnight illumination, low‐intensity strobe illumination (100 flashes/min), forced swimming (5 min at 10℃), white noise (110 dB), tail pinch (1 cm from tail root, 6 min), 45℃ cage tilt, and restraint (1–2 h). Stressors need to be used continuously and randomly. Non‐stressed rats received free food and water, but were required to fast for 14 h before sucrose preference test. After 4 weeks of stress, the sucrose preference test (SPT) (on day 25), open field test (OFT) (on day 28), and novelty‐suppressed feeding (NSF) test (on day 29) were carried out. […]

Experiment [3] has as its system mice. The experiment can be described thus: Learned helplessness paradigm in mice. Type of experiment: in vivo, ICR mice. The settings on record: sub‐chronic, fourth day after inescapable shock training, vs stress. As for the experimental part: For 4 consecutive days, mice were putted into the shuttle box device (40 × 10 × 13 cm), the device was splited into two compartments, and mice could free access. In the IS group, each mouse received 360 inescapable shocks (current intensity 0.30 mA, duration 2 s, 3‐13 s variable interval, about 1 h) over four consecutive training days. Animals in the NIS group underwent the same handling without receiving the foot shocks. 10 trials were conducted on mice to screen helpless, each of which includes conditioned stimulation period (3‐s lamp on), non‐conditioned stimulation period (3‐s lamp +shock), and interval period (without any stimulus, 25 s). […] The EF values were balanced for each group in the experiment. Using Graphic State software (Coulbourn Instruments Inc.,) recorded the number of escape failures and the latency to escape.

A word on the Ki: it is a dissociation constant, usually derived from enzyme kinetics or from competition with a known ligand. Compound `[2H]C([2H])([2H])Oc1cc2c(CCNC(C)=O)cccc2cc1Cl` [GW117] had an inhibitory constant (Ki) in experiment [1] of 0.32 ± 0.08 nM. Besides, the “latency to begin eating” value in experiment [2] is reported as “significantly reduced the latency to begin eating”. The “number of failures to escape” value in experiment [3] (40 mg/kg) is on record as “significantly decreased the number of failures to escape”. Further, the escape latency entry in experiment [3] (20 and 40 mg/kg) is recorded as “decreased the escape latency”.

Source of the values: paper PMC8111499, “GW117: A novel serotonin (5‐HT2C) receptor antagonist and melatonin (MT1/MT2) receptor agonist with potential antidepressant‐like activity in rodents” (CNS Neuroscience & Therapeutics, 2021).
